# Values of other authors, collected in PubChem BioAssay AID1259409 (Chemical Carcinogenesis Research Information System (CCRIS), 2018).
# System: rodent chemically induced tumor inhibition, incidence and multiplicity
# Assay: CCRIS tumor inhibitor studies
# Conditions: Dose [Inhibitor]: 0, Species: MOUSE, Strain/Sex: ICR/FEMALE
SMILES,"tumour outcome (control, treated, inhibition, significance) (Carcinogen: 7,12-DIMETHYLBENZ[A]ANTHRACENE, 57-97-6, 16 NMOL IN 0.1 ML ACETONE 2/WK FOR 20 WK APPLIED 40 MIN PRIOR TO EACH PROMOTER DOSE (STUDY DURATION: 21 WK), Route [Inhibitor]: DERMAL, Target Tissue: Type of Lesion: SKIN: TUMOR, Dose [Carcinogen]: 0.19 UMOL IN 0.1 ML ACETONE ONCE, Promoter: 12-O-TETRADECANOYLPHORBOL-13-ACETATE, 16561-29-8)","tumour outcome (control, treated, inhibition, significance) (Carcinogen: 7,12-DIMETHYLBENZ[A]ANTHRACENE, 57-97-6, 160 NMOL IN 0.1 ML ACETONE 2/WK FOR 20 WK APPLIED 40 MIN PRIOR TO EACH PROMOTER DOSE (STUDY DURATION: 21 WK), Route [Inhibitor]: DERMAL, Target Tissue: Type of Lesion: SKIN: TUMOR, Dose [Carcinogen]: 0.19 UMOL IN 0.1 ML ACETONE ONCE, Promoter: 12-O-TETRADECANOYLPHORBOL-13-ACETATE, 16561-29-8)","tumour outcome (control, treated, inhibition, significance) (Carcinogen: BENZO[A]PYRENE, 50-32-8, 25 PPM IN DIET FOR 17 WK BEGINNING 1 WK POST CARCINOGEN TREATMENT (STUDY DURATION: 21 WK), Route [Inhibitor]: ORAL, Target Tissue: Type of Lesion: FORESTOMACH: TUMOR, Dose [Carcinogen]: 1.5 MG IN 0.2 ML CORN OIL 1/WK FOR 4 WK, Promoter: NONE USED)","tumour outcome (control, treated, inhibition, significance) (Carcinogen: BENZO[A]PYRENE, 50-32-8, 50 PPM IN DIET FOR 17 WK BEGINNING 1 WK POST CARCINOGEN TREATMENT (STUDY DURATION: 21 WK), Route [Inhibitor]: ORAL, Target Tissue: Type of Lesion: FORESTOMACH: TUMOR, Dose [Carcinogen]: 1.5 MG IN 0.2 ML CORN OIL 1/WK FOR 4 WK, Promoter: NONE USED)","tumour outcome (control, treated, inhibition, significance) (Carcinogen: BENZO[A]PYRENE, 50-32-8, 75 PPM IN DIET FOR 17 WK BEGINNING 1 WK POST CARCINOGEN TREATMENT (STUDY DURATION: 21 WK), Route [Inhibitor]: ORAL, Target Tissue: Type of Lesion: FORESTOMACH: TUMOR, Dose [Carcinogen]: 1.5 MG IN 0.2 ML CORN OIL 1/WK FOR 4 WK, Promoter: NONE USED)"
CC/C=C\C/C=C\C/C=C\CCCCCCCC(=O)O,"87%, 80%, 8%, not significant","87%, 47%, 46%, p<0.005",–,–,–
CC1=C(O)C(=O)CO1,–,–,"90%, 80%, 11%, not significant","90%, 85%, 6%, not significant","90%, 80%, 11%, not significant"
